In patent US8030493B2, “Monovalent and divalent salts of N-(5-hydroxynicotinoil) -L-glutamic acid exhibiting psychotropic (antidepressant and anxiolytic), neuroprotective, geroprotective and cerebroprotective action” (Obschestvo S Ogranichennoy Otvetstvennostyu “Natsionalnaya …, priority 2006, dated 2011):
“And” between values parts separate entries of the source, which are not always exact repeats. Equal entries are not always repeated. Marks after values point to notes of the source that are not given here.

Columns and labels:
[1] = system: rats with amnesia; experiment: Antiamnestic activity: passive avoidance response (PAR) with amnesia by maximum electric shock; format: in vivo; conditions: for Time of presence of animals while PAR reproduction (seconds) in the dark chamber / Time of presence of animals while PAR reproduction (seconds) on the illuminated platform: rats with electric shock amnesia, 24 hours after learning; for Dose level with statistically significant antiamnestic effect of the same intensity: PAR, electric shock amnesia, intraperitoneally
Experimental: White nondescript male rats with body weight 250-280 g were used in the experiments. Each dose level was studied in 10 animals. Control animals received equivalent volume of distilled water. Nooglutyl was used as reference agent. Study compounds were administered intraperitoneally 40 minutes before the experiment. Experiment was carried out on the standard automated unit for passive avoidance response (Passive Avoidance) supplied by Lafayette Instrument Co., (USA) (Ader et al. Retention of a passive avoidance response as a function of the intensity and duration of electric shock. Psycho Sci. 1972, v. 26, p. 125-128; Voronina T. A. et al. “Textbook for Experimental (Preclinical Study) of novel pharmacological compounds”. Moscow, Medicina. 2005, p. 253-263 and 308-320). The unit was designed as small platform situated 1 m above the floor, which was illuminated with special lamp, and dark chamber with electrode floor connected with the platform. The rat was placed on illuminated platform in front of the entry to the dark chamber with its tail directed to the entry; the animal preferred dark chamber and quickly ran into it. In the dark chamber the animal received single pain stimulus with electric current (0.45 mA) and memorized that it was dangerous to enter dark chamber. Duration of the stimulus was determined from the running out of the animal from the dark chamber. To achieve amnesia maximum electric shock was used (50 Hz, 0.2 sec), which was made through corneal electrodes immediately after learning. Electric shock caused obliteration of the memory trace. Test for reproduction of passive avoidance response (PAR) (for retention of memory trace) was performed 24 hours after learning session and electric shock. The animal was placed on illuminated platform once again, and time of the presence on illuminated platform and dangerous dark chamber (no current was conducted to the floor during reproduction of PAR).
Control trained animals with reproduction of PAR without electric shock preferred to stay on illuminated platform. Obliteration of training with electric shock causes amnesia in the animals; as a result, the animals with short latent period enter dark chamber and stay there considerably longer than animals without amnesia (Table 2).

[2] = system: rats with hemorrhagic stroke; experiment: Hemorrhagic stroke: neurological deficit (Stroke-index McGrow scale); format: in vivo; conditions: for Number of animals with neurological symptoms, %: Circus movements / Number of animals with neurological symptoms, %: Palsy of 1-4 extremities / Number of animals with neurological symptoms, %: Paresis of 1-4 extremities / Number of animals with neurological symptoms, %: Weakness of extremities: 20 mg/kg single dose intraperitoneally; for Rats with severe neurological symptoms: control with hemorrhagic stroke 60%
Text: (§1) White nondescript male rats with body weight 200-250 g, which lived in vivarium and had feed (standard palletized feed) and water ad libitum, with natural alternation of day and night, were used in the experiments. Hemorrhagic stroke (local cerebral hemorrhage) was simulated according to method by A. N. Makarenko et al. (Method of local hemorrhage simulation I various structures of the brain in experimental animals. Journal Visshei Nervnoy Deyatelnosti—Journal of Higher Nervous Activities, 2002, v. 52, No 6, p. 765-768). In nembutal-anesthetized rats (40 mg/kg, i.m.) destruction of the brain tissue in capsule interna area was made with the use of special device (mandarin-knife) followed by application of blood (0.02-0.03 ml) taken from under the rat's tongue to the damaged area (within 2-3 minutes). False-operated animals underwent scalping and craniotomy. The animals were divided into 5 groups: intact rats, false-operated rats, animals with hemorrhagic stroke received nooglutyl at 20 mg/kg, and animals with hemorrhagic stroke received Compound I at 20 mg/kg. Effects were recorded within 24 hours and 14 days after the surgery. Learning ability and memory of the rats was examined in the model of passive avoidance response (PAR, Passive Avoidance supplied by Lafayette Instrument Co., USA). To determine neurological deficit in the animals Stroke-index McGrow scale modified by I. V. Gannushkina (Functional architectonics of the brain, Moscow, Medicina, 1977, 224 p.) was used. The severity of the condition was determined by the sum of the points. The number of rats with mild symptoms up to 2.5 points of Stroke-index scale (apathy, weakness of the extremities, unilateral semiptosis, tremor, circus movements) and severe manifestations of neurological disorders (3 to 10 points)—paresis of the extremities, palsy of low extremities, lateral position. The animals received single dose of nooglutyl and Compound I at the same dose 20 mg/kg intraperitoneally within 3-3.5 hours after the surgery. Controlled animals were treated with saline. At onset of the experiment each group comprised 15-20 animals. Mortality of the rats was recorded throughout the observation period (14 days). Statistical analysis was made using parametrical and non-parametrical methods and Biostat software. Nimodipin administered at 01.mg/kg according to above scheme was considered as a standard.

[3] = system: rats with hemorrhagic stroke; experiment: Hemorrhagic stroke: reproduction of passive avoidance response; format: in vivo; conditions: 20 mg/kg; for Increase of the share of rats with HS that retained the memory trace: PAR reproduction on Day 14, versus 8% of untreated rats with stroke
Text: as §1

[4] = system: aged rats (24 months); experiment: Motor coordination of aged rats on rotating rod; format: in vivo; conditions: for Number of the animals (%), which obtained the skill, By attempt 5 / Number of the animals (%), which obtained the skill, By attempt 15 / Number of the animals (%), which obtained the skill, By attempt 10: aged rats 24 months, 20 mg/kg 60 days, rotating rod 2 minutes; for Number of the animals (%), which obtained the skill, By attempt 10: 20 mg/kg; for Number of attempts required for learning to 50% of the animals: aged rats treated for 2 months, untreated aged animals 17th attempt
Experimental: White nondescript male rats (Wistar line): to adult animals at age 3 months with body weight 250-300 g and aged 24 month old animals with body weight 350-450 g were used in the study. Nooglutyl at dose level 20 mg/kg and Compound I were administered to aged rats intraperitoneally for 2 months followed by assessment of the effect on learning capacity impaired by age and neurological deficit. Analysis of variance with Student's test, variant portion method and U-test were employed for data processing.
To assess neurological deficit in aged animals (disturbed coordination and capacity for learning motor responses) the rats were placed on the rotating rod. The number of attempts required to obtain the skill of holding on the rotating rod for 2 minutes was registered. […] Under similar conditions only 25% of aged rats obtained this skill starting from the 11th-14th attempt. […] 60% of aged rats treated with nooglutyl and 66% of aged rats treated with Compound I for 2 months learned the skill by the 10th attempt.

[5] = in vivo; conditions: male, white nondescript (outbred), mouse, ip
Experimental: The study of acute daily toxicity of Compound I was carried out on white nondescript male mice with body weight 25-28 g, which lived in habitual conditions in vivarium and received feed and water ad libitum. Single dose of Compound I was administered intraperitoneally. The animals were under observation for 2 days after the dosing. The dose levels of Compound I used in the toxicity study were as follows: 800 mg/kg, 1000 mg/kg, 1200 mg/kg, 1500 mg/kg, 1600 mg/kg. Compound I was dissolved in distilled water and administered in 0, 1 ml per 10 g of the body weight of the animal when the doses 800 mg/kg and 1000 mg/kg, and in 0.2 ml per 10 g of the body weight when the doses 1200 mg/kg, 1500 mg/kg, 1600 mg/kg were used. Control animals received distilled water in the volume 0.2 ml per 10 g of the body weight.
Each dose group comprised 10 animals.

[6] = PAR reproduction within 24 hours
[7] = PAR reproduction within 14 days

O=C([O-])CC[C@H](NC(=O)c1cncc(O)c1)C(=O)[O-].[Ca+2] [Compound I, Calcium N-(5-hydroxynicotinoyl)-L-glutamate]
Time of presence of animals while PAR reproduction (seconds) in the dark chamber ([1]; 25 mg/kg intraperitoneally): 64.2 ± 6.4 s
Time of presence of animals while PAR reproduction (seconds) on the illuminated platform ([1]; 25 mg/kg intraperitoneally): 55.8 ± 9.3 s
Time of presence of animals while PAR reproduction (seconds) in the dark chamber ([1]; 50 mg/kg intraperitoneally): 40.6 ± 8.3 s
Time of presence of animals while PAR reproduction (seconds) on the illuminated platform ([1]; 50 mg/kg intraperitoneally): 79.4 ± 12.8 s
Dose level with statistically significant antiamnestic effect of the same intensity [1]: 25 mg/kg
Number of animals with neurological symptoms, %: Circus movements ([2]; Day 1): 10%
Number of animals with neurological symptoms, %: Palsy of 1-4 extremities ([2]; Day 1): 0%
Number of animals with neurological symptoms, %: Paresis of 1-4 extremities ([2]; Day 1): 10%
Number of animals with neurological symptoms, %: Weakness of extremities ([2]; Day 1): 20* %
Number of animals with neurological symptoms, %: Circus movements ([2]; Day 14): 10%
Number of animals with neurological symptoms, %: Palsy of 1-4 extremities ([2]; Day 14): 0%
Number of animals with neurological symptoms, %: Paresis of 1-4 extremities ([2]; Day 14): 5* %
Number of animals with neurological symptoms, %: Weakness of extremities ([2]; Day 14): 0%
Rats with severe neurological symptoms ([2]; Day 14): 15%
Increase of the share of rats with HS that retained the memory trace [3]: 6.5 fold
Latent period of entry to dark chamber (c) [3, 6]: 128.1 ± 17.6 c
Number of animals, which did not enter dark chamber (%) [3, 6]: 63%
Latent period of entry to dark chamber (c) [3, 7]: 98.9 ± 21.3 c
Number of animals, which did not enter dark chamber (%) [3, 7]: 52$$ %
Number of the animals (%), which obtained the skill, By attempt 5 [4]: 20%
Number of the animals (%), which obtained the skill, By attempt 15 [4]: 66# %
Number of the animals (%), which obtained the skill, By attempt 10 [4]: 66% and 60# %
Number of attempts required for learning to 50% of the animals [4]: 6 attempt
LD50 at 2 days [5]: 1150 mg/kg

O=C(O)CC[C@H](NC(=O)c1cncc(O)c1)C(=O)O [Nooglutyl, N-(5-hydroxynicotinoyl)-L-glutamic acid, reference compound]
Time of presence of animals while PAR reproduction (seconds) in the dark chamber ([1]; 25 mg/kg intraperitoneally): 73.3 ± 13.4 s
Time of presence of animals while PAR reproduction (seconds) on the illuminated platform ([1]; 25 mg/kg intraperitoneally): 46.7 ± 13.4 s
Time of presence of animals while PAR reproduction (seconds) in the dark chamber ([1]; 50 mg/kg intraperitoneally): 65.7 ± 7.1 s
Time of presence of animals while PAR reproduction (seconds) on the illuminated platform ([1]; 50 mg/kg intraperitoneally): 54.3 ± 10.2 s
Dose level with statistically significant antiamnestic effect of the same intensity [1]: 50 mg/kg
Number of animals with neurological symptoms, %: Circus movements ([2]; Day 1): 5%
Number of animals with neurological symptoms, %: Palsy of 1-4 extremities ([2]; Day 1): 0%
Number of animals with neurological symptoms, %: Paresis of 1-4 extremities ([2]; Day 1): 25%
Number of animals with neurological symptoms, %: Weakness of extremities ([2]; Day 1): 30* %
Number of animals with neurological symptoms, %: Circus movements ([2]; Day 14): 0%
Number of animals with neurological symptoms, %: Palsy of 1-4 extremities ([2]; Day 14): 0%
Number of animals with neurological symptoms, %: Paresis of 1-4 extremities ([2]; Day 14): 20* %
Number of animals with neurological symptoms, %: Weakness of extremities ([2]; Day 14): 10%
Rats with severe neurological symptoms ([2]; Day 14): 25%
Increase of the share of rats with HS that retained the memory trace [3]: 5 fold
Latent period of entry to dark chamber (c) [3, 6]: 130.4 ± 20.1 c
Number of animals, which did not enter dark chamber (%) [3, 6]: 64%
Latent period of entry to dark chamber (c) [3, 7]: 92.2 ± 18.2 c
Number of animals, which did not enter dark chamber (%) [3, 7]: 40$ %
Number of the animals (%), which obtained the skill, By attempt 5 [4]: 20%
Number of the animals (%), which obtained the skill, By attempt 15 [4]: 60# %
Number of the animals (%), which obtained the skill, By attempt 10 [4]: 60# %
Number of the animals (%), which obtained the skill, By attempt 10 ([4]; listed as nooglutyl): 60%
Number of attempts required for learning to 50% of the animals [4]: 7 attempt
LD50 at 2 days [5]: 1200 mg/kg
